Measurements: patent US20250011347A1, “NOVEL PLASMALOGEN DERIVATIVE” (Institute of Rheological Function of Food Co., Ltd., priority 2021, published 2025)
Entries after “also recorded” stand apart in the source; their conditions may differ.

Key:
[1] = system: MeCP2-deficient mice; assay: Survival (lifetime) of MeCP2-deficient mice; format: in vivo, mouse; conditions: male MeCP2-deficient mice from 4 weeks old, 20 ng/g body weight in drinking water twice a week
Procedure: Four-week-old male MeCP2-deficient mice were used in the experiment. The MeCP2-deficient mice were divided into two groups: a KIT-008 administration group (KO-KIT-008, n=13) and a control group (KO-All, n=28). The body weight of each of the mice in the administration group was measured in advance. The compound KIT-008 was suspended in water by sonication so that KIT-008 was ingested at 20 ng/g body weight, and it was continuously administered in drinking water to each mouse twice a week to verify its survival. The control group was given only water in the same manner.

[2] = system: inducible nitric oxide synthase (iNOS); assay: LPS-induced iNOS expression in mouse hippocampal tissue (immunohistochemistry); format: in vivo; conditions: c57BL6J mice hippocampal tissue, 10 mg/50 kg/day in drinking water 4 weeks, then LPS 10 days; FIG. 15, 16
Procedure: Specifically, 8-week-old male c57BL6J mice were allowed to drink each of the compounds of the present invention (KIT-008 and KIT-020) at a dose of 10 mg/50 kg/day for 4 weeks, and were then subjected to LPS treatment (200 mg/kg/day) for 10 days while allowing them to drink the compound in the same manner. The mouse brain tissue was subjected to an immunohistochemistry (IHC) study using an anti-NeuN antibody (a neuron marker, Millipore MAB377) and an anti-iNOS antibody (an inflammatory marker, Invitrogen PA1-036). DAPI was used to stain a cell nucleus.
In FIG. 15, the scale bar is 50 μm and the arrows indicate iNOS-positive neurons. The data in FIG. 16 represents the average value for each group (3 mice, n=3). In the LPS group, the number of iNOS-positive neurons increased compared to that in the control group, but in the KIT-008 group and the KIT-020 group, the increase in iNOS-positive neurons caused by LPS was suppressed.

[3] = system: inflammatory cytokine IL-1β; assay: LPS-induced IL-1β expression in BV2 microglial cells (semi-quantitative PCR); format: cell-based, mouse; conditions: compound 5 μg/ml 12 hours, then LPS 1 μg/ml 2 hours, FIG. 1
Procedure: Mouse microglial cells (BV2) were cultured using a DMEM medium containing 2% FBS (fetal bovine serum) for 12 hours under conditions with or without the addition of the compound of the present invention, KIT-008 (5 μg/ml). Thereafter, the cells were treated with LPS (1 μg/ml) for 2 hours, and intracellular RNAs were extracted with an RNA extraction kit (TRI Reagent, Molecular Research Center Inc.), and the expression of an inflammatory cytokine IL-1β and the RNA expression of the Gapdh gene as a control were detected by semi-quantitative PCR (TaKaRa PrimeScript 1st strand cDNA synthesis Kit, TAKARA BIOTECHNOLOGY Co., LTD.).

[4] = system: microglia (Iba1-positive cells) and astrocytes (GFAP-positive cells) in hippocampal tissue; assay: LPS-induced amoeboid shaped microglia and astrocytes increase in mouse hippocampal tissue (immunohistochemistry); format: in vivo; conditions: c57BL6J mice hippocampal tissue, 10 mg/50 kg/day in drinking water 4 weeks, then LPS 10 days; for LPS-induced amoeboid shaped astrocytes (GFAP-positive cells) increase / LPS-induced amoeboid shaped microglia (Iba1-positive cells) increase: FIG. 17, 18; for LPS-induced astrocytes (GFAP-positive cells) increase (number): FIG. 18 lower graph
Procedure: Specifically, 8-week-old male c57BL6J mice were allowed to drink each of the compounds of the present invention (KIT-008 and KIT-020) at a dose of 10 mg/50 kg/day for 4 weeks, and were then subjected to LPS treatment (200 mg/kg/day) for 10 days while allowing them to drink the compound in the same manner. The mouse brain tissue was subjected to an immunohistochemistry (IHC) study using Iba1 (a microglia marker, Fujifilm 019-19741) and GFAP (an astrocyte marker, Sigma C9205). DAPI was used to stain a cell nucleus. In FIG. 17, the scale bar is 100 μm. The data in FIG. 18 represent the percentages of amoeboid shaped microglia and amoeboid shaped astrocytes (upper graphs) and the number of astrocytes (GFAP-positive cells) (a lower graph) in each group (3 mice, n=3). In the LPS group, the amoeboid shaped microglia (Iba1-positive cells) and the amoeboid shaped astrocytes (GFAP-positive cells) increased compared to the control group. In addition, the astrocytes (GFAP-positive cells) increased. However, in the KIT-008 group and the KIT-020 group, the LPS-induced amoeboid shaped microglia (Iba1-positive cells) increase and amoeboid shaped astrocytes (GFAP-positive cells) increase and astrocytes (GFAP-positive cells) increase were suppressed.

[5] = system: lysosomes in mouse neurons Neuro2a (N2a); assay: Impaired lysosomal acidification in Neuro2a neurons induced by culture supernatant of LPS-treated BV2; format: cell-based; conditions: N2a cells, compound 24 hours, then 24 hours in supernatant of LPS-treated BV2 with compound; LysoTracker Red; FIG. 10
Procedure: Lysosomes in mouse neurons Neuro2a (N2a) cultured in a normal DMEM medium were labeled with LysoPrime Green (Dojindo). LysoPrime Green is a fluorescent dye that is highly specific for lysosomes which are acidic organelles and that is resistant to pH changes.
Then, N2a is cultured in the culture supernatant of mouse glial cells BV2 treated with the endotoxin lipopolysaccharide (LPS) (1 μg/ml, 18 h) or the culture supernatant of untreated BV2, and labeled with LysoTracker™ Red DND-99 (Thermo Fisher Scientific) which targets acidic organelles.
That is, it was shown that acidification of the lysosomes in the neurons were impaired by glial cell-derived factors in the medium resulting from inflammation.
Each of the compounds of the present invention, KIT-008, KIT-019 and KIT-020 was added to the medium of N2a cells and cultured for 24 hours, and then cultured for another 24 hours in the culture supernatant of BV2 administered with LPS in the presence of each compound.

[6] = system: p65 (NFkB); assay: LPS-induced p65 nuclear accumulation in BV2 microglial cells (Western blotting); format: cell-based, mouse; conditions: compound 5 μg/ml 12 hours, then LPS 1 μg/ml 2 hours, FIG. 2
Procedure: (§1) Mouse microglial cells (BV2) were cultured using a DMEM medium containing 2% FBS (fetal bovine serum) for 12 hours under conditions with or without the addition of the compound of the present invention, KIT-008 or KIT-020 (5 μg/ml). Thereafter, it was treated with LPS (1 μg/ml) for 2 hours, proteins in the cell nucleus were extracted, and p65 (NFkB) protein expression was detected by Western blotting using NF-κB p65 (Cell Signaling Technology, the clone name: D14E12) as a primary antibody and Anti-Rabbit IgG HRP-linked antibody (Cell Signaling Technology) as a secondary antibody.

[7] = system: c57BL6J mice; assay: Water maze test of mice with LPS-induced memory impairment; format: in vivo, mouse; conditions: 10 mg/50 kg/day in drinking water 4 weeks, then LPS 7 days, Trial 6, P<0.05, FIG. 12
Procedure: Specifically, 8-week-old male c57BL6J mice (5 mice in each group, n=5) were allowed to drink each of the compounds of the present invention (KIT-008 and KIT-020) at a dose of 10 mg/50 kg/day for 4 weeks, and were then subjected to LPS treatment (200 mg/kg/day) for 7 days while allowing them to drink the compound in the same manner. Thereafter, they were subjected to a water maze test for 2 days (3 trials per day).
Escape Latency indicates the time required to arrive at an escape platform (arrival time). Comparisons between groups were performed by ANOVA test and Bonferroni's post hoc test. […] Therefore, the compounds of the present invention are effective in improving brain function (cognitive function).

[8] = system: amyloid beta (Aβ) in N2a cells; assay: Amyloid beta (Aβ) accumulation in lysosomes of CFPAPPsw-expressing N2a cells; format: cell-based, mouse; conditions: N2a cells expressing CFPAPPsw in LPS-treated BV2-derived medium, pretreatment with compound; antibody 6E10; FIG. 11
Description: A plasmid having cDNA encoding CFPAPPsw (CFPAPPsw that fuses a fluorescent protein CFP to the N-terminus of an amyloid precursor protein (APPsw) having a Swedish-type amino acid substitution that is easily cleaved by BACE) was expressed in N2a cells, and localization of amyloid beta (Aβ) in the N2a cells in an untreated mouse glial cell BV2 culture supernatant (−LPS), in the N2a cells in LPS-treated BV2 culture supernatant (LPS-treated BV2-derived medium), and in the N2a cells administered with KIT-008 was verified using an antibody 6E10 (BioLegend) that recognizes the Aβ portion.

[9] = system: amyloid beta (Aβ) deposition in hippocampal tissue; assay: LPS-induced amyloid beta (Aβ) deposition in mouse hippocampal tissue (immunohistochemistry); format: in vivo; conditions: c57BL6J mice hippocampal tissue, 10 mg/50 kg/day in drinking water 4 weeks, then LPS 10 days; FIG. 13, 14
Procedure: Specifically, 8-week-old male c57BL6J mice were allowed to drink each of the compounds of the present invention (KIT-008 and KIT-020) at a dose of 10 mg/50 kg/day for 4 weeks, and were then subjected to LPS treatment (200 mg/kg/day) for 10 days while allowing them to drink the compound in the same manner. The mouse hippocampal tissue was subjected to an immunohistochemistry test using an anti-amyloid beta antibody (a cocktail of two antibodies, 6E10 (BioLegend) and 82E1 (Immuno-Biological Laboratories Co, Ltd)). DAPI was used to stain a cell nucleus. In FIG. 13, the scale bar is 100 μm and the arrows indicate amyloid beta that deposited. The data in FIG. 14 represent the average number of amyloid beta deposition in each group (3 mice, n=3). In the LPS group, amyloid beta deposition was observed compared to the control group, but in the KIT-008 group and the KIT-020 group, amyloid beta deposition caused by LPS was suppressed.

[10] = system: p65 (NFkB); assay: LPS-induced p65 nuclear accumulation in MG6 microglial cells (Western blotting); format: cell-based, mouse; conditions: compound 5 μg/ml 24 hours, then LPS 1 μg/ml 8 hours, FIG. 3
Procedure: as §1, with “cells (MG6)” for “cells (BV2)”, “for 24” for “for 12”, “invention, KIT-019” for “invention, KIT-008”, “for 8” for “for 2”

[11] = system: IL-1β protein; assay: LPS-induced secreted IL-1β protein in MG6 microglial cells (ELISA); format: cell-based, mouse; conditions: compound 5 μg/ml 24 hours, then LPS 1 μg/ml 8 hours, ELISA of culture medium, FIG. 4
Procedure: Five-thousand mouse microglial cells (MG6) were cultured in a 96-well dish containing 100 μl of a DMEM medium containing 2% FBS (fetal bovine serum). Then, 5 μg/ml of each of the compounds of the present invention, KIT-019 and KIT-020 was added and cultured for 24 hours. Thereafter, it was treated with LPS (1 μg/ml) for 8 hours. The culture medium was collected, and the secreted IL-1β protein was measured by ELISA using DuoSet Mouse IL-1β (R&D Systems).

Question: Which “survival rate compared with MeCP2-deficient mice not administered” value ([1]; FIG. 5) does the source give for `CC/C=C\C/C=C\C/C=C\C/C=C\C/C=C\C/C=C\CCC(=O)O[C@H](COC/C=C/CCCCCCCCCCCCCCC)COP(=O)(O)OCCN` [KIT-008, 2-((((R)-2-(((4Z,7Z,10Z,13Z,16Z,19Z)-docosa-4,7,10,13,16,19-hexenoyl)oxy)-3-(((E)-octadec-2-en-1-yl)oxy)propoxy)(hydroxy)phosphoryl)oxy)ethane-1-ammonium 2,2,2-trifluoroacetate] here?
Answer: Its value is “higher”.

Question: And the “number of days until the survival rate reached 50%” value ([1]; control group 64.5 days)?
Answer: The value was 78 days.

Question: What about the “increase in iNOS-positive neurons caused by LPS” value [2] of the same molecule?
Answer: The value was “suppressed”.

Question: What about the “LPS-induced inflammatory cytokine IL-1β expression” value [3] of the same molecule?
Answer: Its value is “reduced”.

Question: What about the “LPS-induced amoeboid shaped astrocytes (GFAP-positive cells) increase” value [4] of the same molecule?
Answer: Its value is “suppressed”.

Question: What about the “LPS-induced amoeboid shaped microglia (Iba1-positive cells) increase” value [4] of the same molecule?
Answer: Its value is “suppressed”.

Question: And the “LPS-induced astrocytes (GFAP-positive cells) increase (number)” value [4]?
Answer: The value was “suppressed”.

Question: What about the “impaired acidification of lysosomes in neurons caused by glial cell-derived factors” value (shortened to “impaired acidification of lysosomes”) [5] of the same molecule?
Answer: Its value is “ameliorated; also recorded: highest effect”.

Question: What about the “LPS-induced p65 nuclear accumulation” value [6] of the same molecule?
Answer: Its value is “suppressed”.

Question: What about the “memory retention (Escape Latency) compared to the LPS group” value [7] of the same molecule?
Answer: Its value is “improvement in memory retention”.

Question: And the “accumulation of Aβ in lysosomes” value [8]?
Answer: Its value is “eliminated”.

Question: And the “amyloid beta deposition caused by LPS” value [9]?
Answer: Its value is “suppressed”.

Question: With `CCCCCCCC/C=C\CCCCCCCC(=O)O[C@H](COC/C=C/CCCCCCCCCCCCCCC)COP(=O)(O)OCCN` [KIT-019, 2-((hydroxy((R)-3-3-(((E)-octadec-2-en-1-yl)oxy)-2-(oleoyloxy)propyl)phosphoryl)oxy)ethane-1-ammonium 2,2,2-trifluoroacetate] as the molecule, how does the “LPS-induced p65 nuclear accumulation” value [10] read?
Answer: The value was “significantly suppressed”.

Question: What about the “LPS-induced inflammatory cytokine IL-1β protein expression” value [11] of the same molecule?
Answer: Its value is “significantly reduced”.

Question: What about the “impaired acidification of lysosomes” value [5] of the same molecule?
Answer: Its value is “ameliorated”.

Question: How did the “LPS-induced p65 nuclear accumulation” value [10] turn out when `CCCCC/C=C\C/C=C\C/C=C\C/C=C\CCCC(=O)O[C@H](COC/C=C/CCCCCCCCCCCCCCC)COP(=O)(O)OCCN` [KIT-020, 2-((hydroxy((R)-2-(((5Z,8Z,11Z,14Z)-icosa-5,8,11,14-tetraenoyl)oxy)-3-(((E)-octadec-2-en-1-yl)oxy)propoxy)phosphoryl)oxy)ethane-1-ammonium 2,2,2-trifluoroacetate] was run?
Answer: The value was “significantly suppressed”.

Question: And the “increase in iNOS-positive neurons caused by LPS” value [2]?
Answer: The value was “suppressed”.

Question: And the “LPS-induced inflammatory cytokine IL-1β protein expression” value [11]?
Answer: The value was “significantly reduced”.

Question: And the “LPS-induced amoeboid shaped astrocytes (GFAP-positive cells) increase” value [4]?
Answer: Its value is “suppressed”.

Question: And the “LPS-induced amoeboid shaped microglia (Iba1-positive cells) increase” value [4]?
Answer: Its value is “suppressed”.

Question: What about the “LPS-induced astrocytes (GFAP-positive cells) increase (number)” value [4] of the same molecule?
Answer: The value was “suppressed”.

Question: And the “impaired acidification of lysosomes” value [5]?
Answer: The value was “ameliorated”.

Question: What about the “LPS-induced p65 nuclear accumulation” value [6] of the same molecule?
Answer: The value was “significantly suppressed”.

Question: What about the “memory retention (Escape Latency) compared to the LPS group” value [7] of the same molecule?
Answer: The value was “improvement in memory retention”.

Question: And the “amyloid beta deposition caused by LPS” value [9]?
Answer: Its value is “suppressed”.
